Measurements: patent US7307062B2, “Method for treating a mental disorder” (priority 2003, dated 2007)
Entries after “also recorded” stand apart in the source; their conditions may differ.

Assays:
[1] = system: child with autistic disorder; assay: Case history five (autistic disorder); type: in vivo, human
[2] = system: child with autistic disorder; assay: Case history CM (autistic disorder); type: in vivo, human; details: clarithromycin
Excerpt: […] They remained hospitalized for 80 days and suffered from significant medical complications due to their premature birth. […] They have severe delays in fine and gross motor skills. Also, severe delays in receptive and expressive language, consistent with their premature birth. […] […] […] Specific behaviors include irritability and temper tantrums, odd meaningless movements, and odd meaningless vocalizations. […] In spite of the placement of tympanostomy tubes […], […] continued to develop recurrent and persistent otis media untila second set of tubes were inserted approximately six months later. […] Head banging and tantrums stopped.

[3] = system: adolescent with ADHD, bipolar and conduct disorder; assay: Case study three (ADHD, major depressive disorder, bipolar)
[4] = system: child with autistic disorder; assay: Case study one (autistic disorder), successive antimicrobial and probiotic treatments
[5] = system: child with Childhood Disintegrative Disorder; assay: Case history two (childhood disintegrative disorder), metronidazole therapy; type: in vivo, human
[6] = system: person with psychiatric symptoms; assay: Case study four (major depressive disorder, obsessive compulsive disorder, atypical psychosis, Crohn's disease); type: in vivo, human
Excerpt: patient four was a person whose symptoms were consistent with major depressive disorder, obsessive compulsive disorder, and atypical psychosis. Standard anti-psychotic medications were unsuccessful in treating the symptoms. The person also had severe gastrointestinal symptoms and was subsequently diagnosed with Crohn's disease. The person began treatment with prednisone and mesalamine, a standard therapy for Crohn's disease. […] Behavior problems were absent. […] A few months thereafter, the person experienced an acute psychiatric relapse and was admitted to the hospital. A colonoscopy confirmed active lesions in the right colon consistent with Crohn's disease. Treatment with prednisone and mesalamine was initiated for their Crohn's disease, with the prednisone later tapered to 20 mg/day after several months. […] the person was able to return to high school and completed their junior year with high honors.

[7] = system: children with regressive onset autism; assay: Open-label trial of oral vancomycin in children with regressive-onset autism
children with autism = assay: Vancomycin and retreatment followed by probiotic fecal enema in children with autism lacking peptostreptococcal species; details: four children with autism
[8] = metronidazole standard dosage for 17 days
[9] = Wilcoxon Signed Ranks Z=−2.9, p=0.003, baseline vs during therapy
[10] = vancomycin 500 mg/day orally, of ten children studied

With COCC1=C(C(=O)OC(C)OC(=O)OC(C)C)N2C(=O)[C@@H](NC(=O)/C(=N\OC)c3csc(N)n3)[C@H]2SC1 (stereo partly drawn) [cefpodoxime proxetil] the “behavior as soon as antibiotics were finished” value ([1]; in vivo) was “became more hyper, more easily aggitated, and more aggressive” and the “autistic symptoms while taking the antimicrobial” value ([1]; prescribed for ear infection, calmness, improved sleep patterns, more signs for communication) was “positive improvement in their autistic symptoms”.
With CC[C@H]1OC(=O)[C@H](C)[C@@H](O[C@H]2C[C@@](C)(OC)[C@@H](O)[C@H](C)O2)[C@H](C)[C@@H](O[C@@H]2O[C@H](C)C[C@H](N(C)C)[C@H]2O)[C@](C)(OC)C[C@@H](C)C(=O)[C@H](C)[C@@H](O)[C@]1(C)O [clarithromycin] the “behavior, parental report” value [2] was “became more cooperative and was much calmer” and the “head banging and tantrums, parental report” value [2] was “stopped”.
With Cc1ncc([N+](=O)[O-])n1CCO [metronidazole] the “rating of behavior problems previously severe in degree” value ([3]; after two months of metronidazole treatment) was “slight in degree or completely resolved”, the “behavior during first week of treatment” value ([3]; metronidazole 500 mg b.i.d.) was “highly agitated” and the behavior after discontinuation ([3]; two weeks after metronidazole therapy was discontinued) was “behavior deteriorated”. The “aggressive and hyperactive behaviors” value ([4]; metronidazole 250 mg t.i.d. for 21 days, end of treatment) was “substantially reduced”, the “Social behavior, After Metronidazole” value ([5]; after discontinuation, on Lactobacillus Acidophilus GG) was “Reverted to baseline” and the “Attitude/State of Mind, After Metronidazole” value ([5]; after discontinuation, on Lactobacillus Acidophilus GG 20 billion cells per day) was “Reverted to baseline”. For the same molecule, the “Speech, After Metronidazole” value ([5]; after discontinuation, on Lactobacillus Acidophilus GG, logic and coherence of speech) was “Initially regressed,”, the “Ability: Physical or Mental, After Metronidazole” value ([5]; after discontinuation, on Lactobacillus Acidophilus GG, sleep) was “Remained somewhat” and the “Speech, After Metronidazole” value ([5]; after discontinuation, on Lactobacillus Acidophilus GG, voice quality) was “Reverted to baseline”. For the same molecule, the “Ability: Physical or Mental, During Metronidazole” value [5, 8] was “Fell asleep quickly”, the “Attitude/State of Mind, During Metronidazole” value [5, 8] was “Aware of surroundings; also recorded: Relaxed and calm; also recorded: Happy, pleasant” and the “Social behavior, During Metronidazole” value ([5]; metronidazole standard dosage for 17 days, aggression towards little brother) was “No aggression towards”. The “Speech, During Metronidazole” value ([5]; metronidazole standard dosage for 17 days, logic and coherence of speech) was “Speech on topic, more”, the “Social behavior, During Metronidazole” value ([5]; metronidazole standard dosage for 17 days, peer interaction and play skills) was “Marked improvement in” and the “Speech, During Metronidazole” value ([5]; metronidazole standard dosage for 17 days, social communication) was “Initiated and”. For the same molecule, the “Speech, During Metronidazole” value ([5]; metronidazole standard dosage for 17 days, voice quality) was “Voice normal, natural,”, the “positive gains after discontinuation” value ([5]; within a week after the discontinuation of metronidazole) was “began to deteriorate” and the “time of first deterioration in behavior” value ([6]; after first metronidazole course) was “two months following the discontinuance”. For the same molecule, the “clinical response, first course” value ([6]; metronidazole 250 mg t.i.d. six weeks, with prednisone and mesalamine) was “rapid improvement in attitude, mood and rebounded academically” and the “clinical response, second course” value ([6]; metronidazole 500 mg t.i.d. for 30 days, within three weeks) was “dramatic improvement in their psychiatric symptoms”.
For CN[C@H](CC(C)C)C(=O)N[C@H]1C(=O)N[C@@H](CC(N)=O)C(=O)N[C@H]2C(=O)N[C@H]3C(=O)N[C@H](C(=O)N[C@H](C(=O)O)c4cc(O)cc(O)c4-c4cc3ccc4O)[C@H](O)c3ccc(c(Cl)c3)Oc3cc2cc(c3O[C@@H]2O[C@H](CO)[C@@H](O)[C@H](O)[C@H]2O[C@H]2C[C@](C)(N)[C@H](O)[C@H](C)O2)Oc2ccc(cc2Cl)[C@H]1O [vancomycin], the “behavior, unblinded analog rating scale, group as a whole” value [7, 9] was “improvement”, the “communication, unblinded analog rating scale, group as a whole” value [7, 9] was “improvement” and the “subjects with a day of marked lethargy” value ([7]; after the hyperactivity period) was “One”. The “basic blood, stool, and urine tests; physical examinations” value ([7]; baseline and throughout the study, all children) was “unremarkable”, the “analog ratings at long-term follow-up” value ([7]; two to eight months after discontinuance, in all but one child) was “returned towards baseline” and the “children with improvement during therapy, blinded assessment of coded, paired videotapes” value ([7]; vancomycin 500 mg/day orally for eight weeks, ten of eleven children scored by blinded psychologist) was 8 of 10 and eight of ten. For the same molecule, the “children with no change, blinded assessment of coded, paired videotapes” value [7, 10] was “one”, the “children with possible deterioration, blinded assessment of coded, paired videotapes” value [7, 10] was “one” and the “duration of period of hyperactivity” value ([7]; within three days of initiating antibiotic treatment) was 1 to 4 days. For the same molecule, the “children with a brief period of hyperactivity” value ([7]; within three days of initiating antibiotic treatment, eleven children) was “six”, the “duration of hyperactivity pattern” value ([4]; emerged three days after initiation of vancomycin) was “four” and the duration of lethargy ([4]; following hyperactivity pattern on vancomycin) was “two”. For the same molecule, the “behavior after vancomycin discontinuation” value ([4]; shortly after discontinuation, while taking probiotic agents) was “behavioral deterioration was observed”, the clinical response ([4]; vancomycin 125 mg q.i.d., 12-week trial) was “rapid and dramatic clinical improvement” and the “composite score, Vineland Adaptive Behavior Scales” value ([4]; vancomycin 125 mg q.i.d., after 8 weeks) was 19 months. For the same molecule, the “increase of composite score, Vineland Adaptive Behavior Scales” value ([4]; vancomycin 125 mg q.i.d., first 8 weeks of treatment, baseline 11 months) was 8 months, the “relapse after discontinuance of antimicrobial therapy” value (children with autism) was “relapsed within two weeks” and the response to treatment (children with autism; complete absence of peptostreptococcal species in stool) was “responded favorably”.
